{
  "source": "patent US20210317090A1",
  "about": "“AMINO ACID DEPLETION AGENTS AS ANTIPROLIFERATIVE AGENTS” (University of Central Florida Research Foundation, Inc., priority 2018, published 2021)",
  "key": {"L3.6pl cells [1]": {"test_system": "L3.6pl cells", "test": "Ant-44 toxicity potentiation assay in L3.6pl cells", "type": "cell-based, human", "method": "As performed previously with CHO K1 cells, L3.6pl cells were treated with compounds 9 (1666.177) and 10 (1666.255) and a fixed dose of Ant-44 to observe the potentiation effect. The 72 h IC50 dose of Ant-44 in L3.6pl cells was previously determined to be 4 μM. For this study, half that dose was used to replicate the large window used in the CHO experiments to look at reduction in cell viability. In a 96-well plate, L3.6pl cells were dosed with a fixed concentration of Ant-44 (2 μM) and increasing doses of compounds 9 (1666.177) and 10 (1666.255). Although both compounds were effective at reducing cell viability, higher doses were required compared to CHO K1 cells.\nFIG. 6 is an example according to various embodiments, illustrating the ability of compounds 9 (1666.177) and 10 ([…]) to potentiate the effect of Ant-44 in L3.6pl cells. Cells were incubated for 72 h at 37° C. with the respective compound and Ant-44 (2 μM). A 250 μM AG solution was incubated with the cells for 24 h prior to addition of compounds. […] Both compounds are nontoxic at the second highest concentration tested (1 μM)."}, "L3.6pl cells [2]": {"test_system": "L3.6pl cells", "test": "Intracellular leucine and methionine after cell lysis (LCMS)", "type": "cell-based, human", "details": "72 h", "method": "This example illustrates aspects according to various embodiments pertaining to a 72 h experiment with Compound 10 in L3.6pl cells. Ten milliliters of a cell suspension containing L3.6pl human pancreatic cancer cells (50,000 cells/mL) and aminoguanidine ([…]) were placed in treated plastic Petri dishes (d=9 cm) and incubated overnight at 37° C. After 24 h, the cells were dosed with compound 10 at 2 μM, 5 μM, or 7 μM. (Note: Stock solutions of 10 at 2, 5, and 7 mM were dissolved in phosphate buffered saline (PBS) and were filtered through a 0.2 μm filter prior to use. The experiments were maintained with a total volume of 10.01 mL where 10 mL of the cell suspension was placed in a plastic dish and each compound or the equivalent PBS volume was added to make up the total volume 10.01 mL for each dish. For example, for the control experiment PBS (10 μL) was added to make up the total volume (10 mL+10 μL=10.01 mL). After 72 h incubation, the cells were collected first by pipetting off the supernatant containing floating dead cells from the culture dish as well as media and placing them into 15 mL tubes. The supernatant containing floating cells was centrifuged (4 min at 1,000 rpm). The cell-free supernatant (supernatant #1) was collected into a new 15 mL tube and quantified (˜8.6 mL) and was then stored frozen and was later quantified by LCMS to investigate the media composition of particular polyamine and amino acid analytes. The attached cells on the dish were washed with PBS (5 mL). The PBS wash was removed by suction and additional PBS (2 mL) was added and again suctioned off to provide twice-washed cells still adhered to the dish. Trypsin (2 mL) was then added to each dish and incubated (3-5 min) until all the cells were detached. Fresh media (8 mL) was added to quench the trypsin. The cell solutions were pipetted into separate 15 mL tubes and centrifuged (4 min at 1,000 rpm). The resulting supernatant was removed to provide a pellet. The pellet was suspended in PBS (10 mL) and was counted by a hemocytometer to provide cell counts for each experimental condition. The pellet was then centrifuged (4 min at 1,000 rpm) and the supernatant removed and the remaining pellet was quantified via protein and polyamine analysis.\nTo each cell pellet, a perchloric acid (100 μL) buffer solution (0.2M HClO4/1 M NaCl) and 0.9% NaCl (50 μL) was added. The samples were sonicated via sonic dismembranator in small bursts until samples were homogenized and cloudy. Additional perchloric acid (50 μL) buffer solution was added. The homogenized samples were then vortexed and centrifuged (10 min at 4,000 rpm). The supernatants of the respective samples (supernatant #2) were removed and quantified by calibrated pipet (˜190 μL volume). Note: 100 μL of supernatant #2 was placed into a micro-centrifuge tube for polyamine analysis by the N-dansylation HPLC protocol and the rest was placed into a different micro-centrifuge tube for analysis by LCMS of specific amino acid analytes. The respective supernatants were stored in the freezer for polyamine and LCMS quantification and the remaining protein pellet was used for the protein analysis. The protein pellet was dissolved in aq. NaOH (1 mM, 200 μL). The sample stood at room temperature with occasional vortex (45 min) and was then centrifuged (15 min at 15,000 rpm). The supernatant was collected and dissolved protein was quantified using the commercial Pierce BCA kit according to manufacturer's protocol.\nThis example illustrates aspects according to various embodiments pertaining to an LCMS Analysis. […]"}, "CHO K1 cells": {"test_system": "CHO K1 cells", "test": "Cytotoxicity dose-response (MTS cell viability) in CHO K1 cells", "type": "cell-based, Chinese hamster", "method": "CHO K1 Studies. Wild type Chinese hamster ovary (CHO K1) cells were chosen to first study the synthetic compounds' impact on polyamine metabolism. The CHO K1 cell line has high polyamine transport activity and was useful in screening compounds for their polyamine transport inhibitor activity. A dose-response curve was obtained for each compound to determine their toxicity in CHO K1 cells after 48 h incubation. Compound 9 (1666.177) was non-toxic up to the highest dose tested (15 μM).\nRegarding the biological studies performed in the following examples, it is noted that CHO K1, CHO-MG, and L3.6pl cells were grown in RPMI 1640 medium supplemented with 10% fetal bovine serum (FBS) and 1% penicillin/streptomycin. All cells were grown at 37° C. under a humidified 5% CO2 atmosphere. Aminoguanidine (1 mM used for CHO K1 and CHOMG cells and 250 μM for L3.6pl) was added to the growth medium to prevent oxidation of the compounds of the bovine serum amine oxidase enzyme that is present in calf serum. The cells used were in early to mid log phase and CHO and CHOMG were plated out at 1000 cells/well, whereas the L3.6pl cells were plated at 500 cells/well in a 96 well plate format.\nThis example illustrates aspects according to various embodiments pertaining to IC50 determinations and cell viability studies. Cell growth was assayed in sterile 96-well microtiter plates (Costar 3599, Corning, N.Y.). CHO K1 or CHOMG cells were plated at 1,000 cells/70 μL and L3.6pl cells at 500 cells/70 μL. The drug solutions of appropriate concentration in phosphate buffered saline (PBS) were added 10 μL per well after overnight incubation. After drug exposure (e.g., for 48 h for CHO K1 and CHO-MG and 48 h or 72 h for L3.6pl), cell growth was determined by measuring formazan formation from the 3-(4,5dimethylthiazol-2-yl)-5-(3-carboxymethoxyphenyl)-2-(4-sulfenyl)-2H tetrazolium, inner salt (MTS) using SynergyMx Biotek microplate reader for absorbance (490 nm) measurements.^27 All experiments were run in triplicate."}},
  "data": [
    {"compound": "CC(C)CCN1CCN(C(CNCc2ccccc2)CC2CCCCC2)CC1CC(C)C.Cl.Cl.Cl", "note": "(stereo not shown) [Compound 10, Benzyl-{3-cyclohexyl-2-[3-isobutyl-4-(3-methyl-butyl)-piperazin-1-yl]-propyl}-amine trihydrochloride salt]", "values": [
      {"measurement": "effectiveness at increasing the potency of Ant-44 relative to compound 9", "setting": "L3.6pl cells [1]", "result": "approximately eleven times more effective"},
      {"measurement": "EC50", "setting": "L3.6pl cells [1]; Homo sapiens, Ant-44 2 μM, 72 h", "result": "0.29 ± 0.1", "unit": "µM"},
      {"measurement": "Intracellular level Leucine", "setting": "L3.6pl cells [2]; 2 μM", "result": "152 ± 8", "unit": "pmol/mg protein"},
      {"measurement": "Intracellular level Methionine", "setting": "L3.6pl cells [2]; 2 μM", "result": "226 ± 21", "unit": "pmol/mg protein"},
      {"measurement": "Intracellular level Leucine", "setting": "L3.6pl cells [2]; 5 μM", "result": "94 ± 3", "unit": "pmol/mg protein"},
      {"measurement": "Intracellular level Methionine", "setting": "L3.6pl cells [2]; 5 μM", "result": "41 ± 23", "unit": "pmol/mg protein"},
      {"measurement": "Intracellular level Leucine", "setting": "L3.6pl cells [2]; 7 μM", "result": "77 ± 1", "unit": "pmol/mg protein"},
      {"measurement": "Intracellular level Methionine", "setting": "L3.6pl cells [2]; 7 μM", "result": "Not detected"},
      {"measurement": "toxicity of compound alone", "setting": "CHO K1 cells; CHO K1, highest concentration tested (5 μM), 48 h", "result": "nontoxic"},
      {"measurement": "IC50", "setting": "CHO K1 cells; Cricetulus griseus, CHO K1 cells, 48 h incubation", "result": "10.8 ± 0.22", "unit": "µM"}
    ]}
  ]
}
